Test results taken from PubChem BioAssay AID1259407 (Chemical Carcinogenesis Research Information System (CCRIS), 2018).
The source made the active and inactive calls. How the calls were made is not given here.

Test system: CCRIS mutagenicity, Ames/micronucleus/aberration tests
Assay: CCRIS mutagenicity studies
[1] = Test System: AMES SALMONELLA TYPHIMURIUM, Strain/Indicator: TA97A, Metabolic Activation: NONE, Method: STANDARD PLATE
[2] = Test System: AMES SALMONELLA TYPHIMURIUM, Strain/Indicator: TA98, Metabolic Activation: NONE, Method: PREINCUBATION
[3] = Test System: AMES SALMONELLA TYPHIMURIUM, Strain/Indicator: TA98, Metabolic Activation: NONE, Method: STANDARD PLATE
[4] = Test System: AMES SALMONELLA TYPHIMURIUM, Strain/Indicator: TA100, Metabolic Activation: NONE, Method: PREINCUBATION
[5] = Test System: AMES SALMONELLA TYPHIMURIUM, Strain/Indicator: TA102, Metabolic Activation: NONE, Method: STANDARD PLATE
[6] = Test System: AMES SALMONELLA TYPHIMURIUM, Strain/Indicator: TA100, Metabolic Activation: NONE, Method: STANDARD PLATE

CCN(CC)CCCC(C)Nc1ccnc2cc(Cl)ccc12 (stereo unspecified)
mutagenic call (Test System: AMES SALMONELLA TYPHIMURIUM, Strain/Indicator: TA97, Metabolic Activation: NONE, Method: STANDARD PLATE): active; positive | mutagenic call [1]: inactive; negative | mutagenic call (Test System: AMES SALMONELLA TYPHIMURIUM, Strain/Indicator: TA97A, Metabolic Activation: RAT LIVER S-9, PHENOBARBITAL, Method: STANDARD PLATE): inactive; negative | mutagenic call (Test System: AMES SALMONELLA TYPHIMURIUM, Strain/Indicator: TA97A, Metabolic Activation: RAT, LIVER, S-9, AROCLOR 1254, Method: STANDARD PLATE): inactive; negative | mutagenic call [2]: inactive; negative | mutagenic call [3]: active; positive | mutagenic call (Test System: AMES SALMONELLA TYPHIMURIUM, Strain/Indicator: TA98, Metabolic Activation: RAT, LIVER, S-9, AROCLOR 1254 OR PHENOBARBITOL, Method: STANDARD PLATE): active; positive | mutagenic call (Test System: AMES SALMONELLA TYPHIMURIUM, Strain/Indicator: TA98, Metabolic Activation: RAT, LIVER, S-9, PCB, Method: STANDARD PLATE): inactive; negative | mutagenic call (Test System: AMES SALMONELLA TYPHIMURIUM, Strain/Indicator: TA98, Metabolic Activation: RAT, LIVER, S-9, Method: PREINCUBATION): inactive; negative | mutagenic call [4]: inactive; negative | mutagenic call (Test System: AMES SALMONELLA TYPHIMURIUM, Strain/Indicator: TA100, Metabolic Activation: RAT LIVER S-9, PHENOBARBITAL, Method: STANDARD PLATE): inactive; negative | mutagenic call (Test System: AMES SALMONELLA TYPHIMURIUM, Strain/Indicator: TA100, Metabolic Activation: RAT, LIVER, S-9, AROCLOR 1254 OR PHENOBARBITOL, Method: STANDARD PLATE): active; positive | mutagenic call (Test System: AMES SALMONELLA TYPHIMURIUM, Strain/Indicator: TA100, Metabolic Activation: RAT, LIVER, S-9, PCB, Method: STANDARD PLATE): inactive; negative | mutagenic call (Test System: AMES SALMONELLA TYPHIMURIUM, Strain/Indicator: TA100, Metabolic Activation: RAT, LIVER, S-9, Method: PREINCUBATION): inactive; negative | mutagenic call [5]: inactive; negative | mutagenic call (Test System: AMES SALMONELLA TYPHIMURIUM, Strain/Indicator: TA102, Metabolic Activation: RAT LIVER S-9, PHENOBARBITAL, Method: STANDARD PLATE): inactive; negative | mutagenic call (Test System: AMES SALMONELLA TYPHIMURIUM, Strain/Indicator: TA104, Metabolic Activation: NONE, Method: STANDARD PLATE): inactive; negative | mutagenic call (Test System: AMES SALMONELLA TYPHIMURIUM, Strain/Indicator: TA104, Metabolic Activation: RAT LIVER S-9, PHENOBARBITAL, Method: STANDARD PLATE): inactive; negative | mutagenic call (Test System: AMES SALMONELLA TYPHIMURIUM, Strain/Indicator: TA1535, Metabolic Activation: NONE, Method: STANDARD PLATE): inactive; negative | mutagenic call (Test System: AMES SALMONELLA TYPHIMURIUM, Strain/Indicator: TA1535, Metabolic Activation: RAT, LIVER, S-9, AROCLOR 1254 OR PHENOBARBITOL, Method: STANDARD PLATE): inactive; negative | mutagenic call (Test System: AMES SALMONELLA TYPHIMURIUM, Strain/Indicator: TA1537, Metabolic Activation: NONE, Method: MICROFLUCTUATION): active; positive | mutagenic call (Test System: AMES SALMONELLA TYPHIMURIUM, Strain/Indicator: TA1537, Metabolic Activation: NONE, Method: STANDARD PLATE): inactive; negative | mutagenic call (Test System: AMES SALMONELLA TYPHIMURIUM, Strain/Indicator: TA1537, Metabolic Activation: RAT, LIVER, S-9, AROCLOR 1254, Method: STANDARD PLATE): inactive; negative | mutagenic call (Test System: AMES SALMONELLA TYPHIMURIUM, Strain/Indicator: TA1537, Metabolic Activation: RAT, LIVER, S-9, AROCLOR 1254 OR PHENOBARBITOL, Method: STANDARD PLATE): inactive; negative | mutagenic call (Test System: AMES SALMONELLA TYPHIMURIUM, Strain/Indicator: TA1537, Metabolic Activation: RAT, LIVER, S-9, PCB, Method: STANDARD PLATE): inactive; negative | mutagenic call (Test System: AMES SALMONELLA TYPHIMURIUM, Strain/Indicator: TA1538, Metabolic Activation: NONE, Method: STANDARD PLATE): inactive; negative | mutagenic call (Test System: AMES SALMONELLA TYPHIMURIUM, Strain/Indicator: TA1538, Metabolic Activation: RAT, LIVER, S-9, AROCLOR OR PHENOBARBITOL, Method: STANDARD PLATE): inactive; negative | mutagenic call (Test System: AMES SALMONELLA TYPHIMURIUM, Strain/Indicator: TA1538, Metabolic Activation: RAT, LIVER, S-9, PCB, Method: STANDARD PLATE): inactive; negative | mutagenic call (Test System: AMES SALMONELLA TYPHIMURIUM, Strain/Indicator: TA1977, Metabolic Activation: NONE, Method: MICROFLUCTUATION): inactive; negative | mutagenic call (Test System: E. COLI, Strain/Indicator: DG1669, Metabolic Activation: NONE, Method: STANDARD PLATE): active; positive | mutagenic call (Test System: E. COLI, Strain/Indicator: DG1669, Metabolic Activation: RAT, LIVER, S-9, AROCLOR 1254, Method: STANDARD PLATE): active; positive | mutagenic call (Test System: E. COLI, Strain/Indicator: WP2 UVRA, Metabolic Activation: RAT, LIVER, S-9, PCB, Method: STANDARD PLATE): inactive; negative

CC(=O)c1oc([N+](=O)[O-])c(-c2ccccc2)c1-c1ccccc1
mutagenic call (Test System: AMES SALMONELLA TYPHIMURIUM, Strain/Indicator: TA98(NR), Metabolic Activation: NONE, Method: STANDARD PLATE): inactive; negative | mutagenic call [3]: active; positive | mutagenic call (Test System: AMES SALMONELLA TYPHIMURIUM, Strain/Indicator: TA100(NR), Metabolic Activation: NONE, Method: STANDARD PLATE): inactive; negative | mutagenic call [6]: active; positive

CC(C)=CCC/C(C)=C/C=O
mutagenic call [1]: inactive; negative | mutagenic call (Test System: AMES SALMONELLA TYPHIMURIUM, Strain/Indicator: TA97A, Metabolic Activation: RAT LIVER S-9, AROCLOR 1254, Method: STANDARD PLATE): inactive; negative | mutagenic call (Test System: AMES SALMONELLA TYPHIMURIUM, Strain/Indicator: TA98, Metabolic Activation: HAMSTER, LIVER, S-9, AROCLOR 1254 (10%), Method: PREINCUBATION): inactive; negative | mutagenic call [2]: inactive; negative | mutagenic call [3]: inactive; negative | mutagenic call (Test System: AMES SALMONELLA TYPHIMURIUM, Strain/Indicator: TA98, Metabolic Activation: RAT LIVER S-9, AROCLOR 1254, Method: STANDARD PLATE): inactive; negative | mutagenic call (Test System: AMES SALMONELLA TYPHIMURIUM, Strain/Indicator: TA98, Metabolic Activation: RAT, LIVER, S-9, AROCLOR 1254 (10%), Method: PREINCUBATION): inactive; negative | mutagenic call (Test System: AMES SALMONELLA TYPHIMURIUM, Strain/Indicator: TA100, Metabolic Activation: HAMSTER, LIVER, S-9, AROCLOR 1254 (10%), Method: PREINCUBATION): inactive; negative | mutagenic call [4]: inactive; negative | mutagenic call [6]: inactive; negative | mutagenic call (Test System: AMES SALMONELLA TYPHIMURIUM, Strain/Indicator: TA100, Metabolic Activation: RAT LIVER S-9, AROCLOR 1254, Method: STANDARD PLATE): inactive; negative | mutagenic call (Test System: AMES SALMONELLA TYPHIMURIUM, Strain/Indicator: TA100, Metabolic Activation: RAT, LIVER, S-9, AROCLOR 1254 (10%), Method: PREINCUBATION): inactive; negative | mutagenic call [5]: inactive; negative | mutagenic call (Test System: AMES SALMONELLA TYPHIMURIUM, Strain/Indicator: TA102, Metabolic Activation: RAT LIVER S-9, AROCLOR 1254, Method: STANDARD PLATE): inactive; negative | mutagenic call (Test System: AMES SALMONELLA TYPHIMURIUM, Strain/Indicator: TA1535, Metabolic Activation: HAMSTER, LIVER, S-9, AROCLOR 1254 (10%), Method: PREINCUBATION): inactive; negative | mutagenic call (Test System: AMES SALMONELLA TYPHIMURIUM, Strain/Indicator: TA1535, Metabolic Activation: NONE, Method: PREINCUBATION): inactive; negative | mutagenic call (Test System: AMES SALMONELLA TYPHIMURIUM, Strain/Indicator: TA1535, Metabolic Activation: RAT, LIVER, S-9, AROCLOR 1254 (10%), Method: PREINCUBATION): inactive; negative | mutagenic call (Test System: AMES SALMONELLA TYPHIMURIUM, Strain/Indicator: TA1537, Metabolic Activation: HAMSTER, LIVER, S-9, AROCLOR 1254 (10%), Method: PREINCUBATION): inactive; negative | mutagenic call (Test System: AMES SALMONELLA TYPHIMURIUM, Strain/Indicator: TA1537, Metabolic Activation: NONE, Method: PREINCUBATION): inactive; negative | mutagenic call (Test System: AMES SALMONELLA TYPHIMURIUM, Strain/Indicator: TA1537, Metabolic Activation: RAT, LIVER, S-9, AROCLOR 1254 (10%), Method: PREINCUBATION): inactive; negative
